Results from patent publication US9657079B2, “Truncated GLP-1 derivatives and their therapeutical use” (Novo Nordisk A/S, priority 2007, dated 2017).
Where a SMILES comes first, the peptide text is derived from it. [ ]: non-standard residue; d: D form. Aib = CC(C)(N)C(=O)O

Columns and labels:
human GLP-1 receptor [1] = biological target: T1, human GLP-1 receptor (Homo sapiens, UniProt P43220); experiment: Stimulation of cAMP formation, plasma membranes from BHK467-12A (tk-ts13) cells, AlphaScreen cAMP kit; type: biochemical; conditions: membranes of BHK467-12A (tk-ts13) expressing the human GLP-1 receptor; read-out: potency (EC50), cAMP formation
T1 construct: expressed in transfected cells; purified plasma membranes
Experimental: In particular embodiments (i) baby hamster kidney (BHK) cells expressing the cloned human GLP-1 receptor are used, preferably BHK-467-12A, more preferably BHK-467-12A (tk-ts13); (ii) the cells are grown in DMEM media with the addition of 100 IU/mL penicillin, 100 μg/mL streptomycin, 5% fetal calf serum and 0.5 mg/mL Geneticin G-418 (Life Technologies), preferably at 5% CO2; (iii) the cells, preferably at approximately 80% confluence, are washed twice in phosphate buffered saline; (iv) the cells are harvested with an aqueous solution of tetrasodium salt of ethylenediaminetetraacetic acid, such as Versene; (v) plasma membranes are prepared from the cells by homogenisation, preferably in buffer 1; the homogenate is centrifuged, e.g. at 48,000×g for 15 min at 4° C.; and/or (vii) the pellet is suspended by homogenization in buffer 2. Steps (vi) and (vii) are preferably repeated, e.g. one or two times more.
The functional receptor assay may be carried out as described in Example 21 by measuring cyclic AMP (cAMP) as a response to stimulation by the insulinotropic agent. cAMP formed is preferably quantified by the AlphaScreen™ cAMP Kit (Perkin Elmer Life Sciences). Incubations may be carried out in half-area 96-well microtiter plates in a total volume of 50 μL buffer 3 (50 mM Tris-HCI, 5 mM HEPES, 10 mM MgCl2, pH 7.4) and with the following additions: 1 mM ATP, 1 μM GTP, 0.5 mM 3-isobutyl-1-methylxanthine (IBMX), 0.01% Tween-20, 0.1% BSA, 6 μg membrane preparation, 15 μg/mL acceptor beads, 20 μg/mL donor beads preincubated with 6 nM biotinyl-cAMP. Analogues or derivatives to be tested for agonist activity are preferably dissolved and diluted in buffer 3. GTP is freshly prepared for each experiment. […]
For comparison, the potency of truncated natural, human GLP-1(7-33) was also determined.
Purified plasma membranes from a stable transfected cell line, BHK467-12A (tk-ts13), expressing the human GLP-1 receptor was stimulated with GLP-1 compound in question, and the potency of cAMP production was measured using the AlphaScreen™ cAMP Assay Kit from Perkin Elmer Life Sciences. […]
Cells at approximate 80% confluence are washed 2× with PBS (Phosphate Buffered Saline) and harvested with Versene (aqueous solution of the tetrasodium salt of ethylenediaminetetraacetic acid), centrifuged 5 min at 1000 rpm and the supernatant removed. […] Suspension in Buffer 2, homogenization and centrifugation is repeated once and the membranes are resuspended in Buffer 2 and ready for further analysis or stored at −80° C.
The functional receptor assay was carried out by measuring the peptide induced cAMP production by The AlphaScreen Technology. […] Formed cAMP is counted and measured at a Alpha Fusion Microplate Analyzer. […]

[2] = biological target: T2, isolated N-terminal extracellular domain of the GLP-1R receptor (nGLP-1R) (Homo sapiens, UniProt P43220); experiment: Displacement of 125I-Exendin-4(9-39) from nGLP-1R (SPA); type: binding; conditions: SPA beads, read-out: affinity to nGLP-1R (IC50)
T2 construct: isolated N-terminal extracellular domain of the GLP-1R receptor (nGLP-1R); made in house
Experimental: The protein is then biotinylated and immobilized, preferably on streptavidin-coated SPA beads. The nGLP1R in a suitable buffer such as 0.1M NaHCO3 may be biotinylated using 75 μg BNHS (Sigma H1759) to 1 mg protein. The biotinylated nGLP1R is subsequently preferably dialyzed against PBS. […] The plates are incubated on a shaker, preferably at RT for 3 hours. The SPA particles may be spun down by centrifugation, e.g. for 10 min at 1500 rpm, and the plates are counted, e.g. in a TopCount-NXT (PerkinElmer).
The nGLP1R in 0.1M NaHCO3 was biotinylated using 75 μg BNHS (Sigma H1759) to 1 mg protein. The biotinylated nGLP1R was subsequently dialyzed against PBS. All reagents and derivatives were diluted in PBS with 0.05% v/v Tween 20. […] The plates were incubated on a shaker at RT for 3 hours. The SPA particles were spun down by centrifugation for 10 min at 1500 rpm and the plates were counted in a TopCount-NXT (PerkinElmer).

human GLP-1 receptor [3] = biological target: T1, human GLP-1 receptor; experiment: Displacement of 125I-GLP-1 from the GLP-1 receptor, BHK tk-ts13 membranes (SPA); conditions: displacement of 125I-GLP-1, BHK tk-ts13 membranes, read-out: IC50, binding affinity to the GLP-1 receptor
Source text: In a second aspect, the GLP-1 analogue or derivative thereof (“GLP-1 compound”) has a high affinity to the GLP-1 receptor. The affinity to the GLP-1 receptor may be determined as described in Example 23, i.e. by way of displacement of ^125I-GLP-1 from the receptor. BHK cells may be used for membrane preparation, preferably strain tk-ts13. The membranes may be purified, preferably as described in Example 23, A preferred binding assay method is the SPA assay of Example 23.
The binding affinity of a number of GLP-1 compounds of the invention (compounds of Examples 1-7, and 9-18) to the human GLP-1 receptor was measured by way of their ability to displace ^125I-GLP-1 from the receptor.
Species (in vitro): Hamster
Biological End Point: Receptor Binding
The cells (approx. 80% confluence) were washed twice in PBS and harvested (PBS+EDTA or Versene), following which they were separated by centrifugation at 1000 rpm for 5 min. The cells/cell pellet must be kept on ice to the extent possible in the subsequent steps. The cell pellet was homogenised with Ultrathurrax for 20-30 seconds in a suitable amount of Buffer 1 (depending on the amount of cells, but e.g. 10 ml). The homogenate as centrifuged at 20000 rpm for 15 minutes. The pellet was resuspended (homogenised) in 10 ml Buffer 2 and re-centrifuged. This step was repeated once more. The resulting pellet was resuspended in Buffer 2, and the protein concentration was determined. The membranes were stored at −80° C.
Buffer 1: 20 mM Na-HEPES+10 mM EDTA, pH 7.4
Buffer 2: 20 mM Na-HEPES+0.1 mM EDTA, pH 7.4
Test compounds/peptides, membranes, SPA-particles and [^125I] are diluted in assay buffer. 25 ul (micro liter) of test compounds/peptides are added to Optiplate. Buffer is added (50 ul). Add 5-10 ug protein/sample (50 ul) corresponding to 0.1-0.2 mg protein/ml (to be preferably optimised for each membrane preparation). Add SPA-particles (Wheatgerm agglutinin SPA beads) RPNQ 0001) 0.5 mg/well (50 ul). Start the incubation with [I^125]-GLP-1 (final concentration 0.05 nM corresponding to 49.880 DPM, 25 ul). The plates are sealed with PlateSealer. Incubate for 120 minutes at 30° C. while shaking. The plates are centrifuged (1500 rpm, 10 min) and counted in Topcounter.
Assay buffer: 50 mM HEPES

T1 sequence (P43220 24-463): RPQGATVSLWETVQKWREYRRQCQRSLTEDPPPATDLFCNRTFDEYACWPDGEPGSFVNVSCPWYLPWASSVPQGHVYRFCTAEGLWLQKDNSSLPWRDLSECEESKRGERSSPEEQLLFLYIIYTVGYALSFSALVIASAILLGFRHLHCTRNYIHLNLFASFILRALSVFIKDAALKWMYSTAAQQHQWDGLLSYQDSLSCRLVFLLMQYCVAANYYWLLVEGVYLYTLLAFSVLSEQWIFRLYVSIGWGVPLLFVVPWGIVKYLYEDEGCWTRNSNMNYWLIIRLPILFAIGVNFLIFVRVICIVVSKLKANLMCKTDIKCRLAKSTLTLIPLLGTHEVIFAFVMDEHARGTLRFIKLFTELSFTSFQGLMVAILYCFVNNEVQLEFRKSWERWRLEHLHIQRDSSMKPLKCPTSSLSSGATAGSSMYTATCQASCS
T2 sequence (P43220 24-139 limits assumed): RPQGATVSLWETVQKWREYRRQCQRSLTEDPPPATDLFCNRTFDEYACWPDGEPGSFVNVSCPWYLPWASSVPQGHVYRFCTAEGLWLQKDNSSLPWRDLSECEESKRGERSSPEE

Compound | EC50 (human GLP-1 receptor [1]) | IC50 [2] | IC50 (human GLP-1 receptor [3])
CC[C@H](C)[C@H](NC(=O)[C@H](Cc1ccccc1)NC(=O)[C@H](CCC(=O)O)NC(=O)[C@H](CCCNC(=N)N)NC(=O)[C@H](C)NC(=O)[C@H](C)NC(=O)[C@H](CCC(N)=O)NC(=O)[C@H](CCC(=O)O)NC(=O)[C@H](CCC(=O)O)NC(=O)[C@H](CC(C)C)NC(=O)[C@H](Cc1ccc(O)cc1)NC(=O)[C@H](CO)NC(=O)[C@H](CO)NC(=O)[C@@H](NC(=O)[C@H](CC(=O)O)NC(=O)[C@H](CO)NC(=O)[C@@H](NC(=O)[C@H](Cc1ccccc1)NC(=O)[C@@H](NC(=O)CNC(=O)[C@H](CCC(=O)O)NC(=O)[C@H](C)NC(=O)[C@@H](N)Cc1c[nH]cn1)[C@@H](C)O)[C@@H](C)O)C(C)C)C(=O)N[C@@H](C)C(=O)N[C@@H](Cc1c[nH]c2ccccc12)C(=O)N[C@@H](CC(C)C)C(=O)N[C@H](C(N)=O)C(C)C [Example 1, [Glu22,Arg26]GLP-1 (7-33) Amide] (H-HAEGTFTSDVSSYLEEQAAREFIAWLV-NH2) | < 0.0003 µM | 0.2 to 1.5 µM | 0.00024 to 0.044 µM
CC[C@H](C)[C@H](NC(=O)[C@H](Cc1ccccc1)NC(=O)[C@H](CCC(=O)O)NC(=O)[C@H](CCCNC(=N)N)NC(=O)[C@@H](NC(=O)[C@H](C)NC(=O)[C@H](CCC(N)=O)NC(=O)[C@H](CCC(=O)O)NC(=O)[C@H](CCC(=O)O)NC(=O)[C@H](CC(C)C)NC(=O)[C@H](Cc1ccc(O)cc1)NC(=O)[C@H](CO)NC(=O)[C@H](CO)NC(=O)[C@@H](NC(=O)[C@H](CC(=O)O)NC(=O)[C@H](CO)NC(=O)[C@@H](NC(=O)[C@H](Cc1ccccc1)NC(=O)[C@@H](NC(=O)CNC(=O)[C@H](CCC(=O)O)NC(=O)[C@H](C)NC(=O)[C@@H](N)Cc1c[nH]cn1)[C@@H](C)O)[C@@H](C)O)C(C)C)C(C)C)C(=O)N[C@@H](C)C(=O)N[C@@H](Cc1c[nH]c2ccccc12)C(=O)N[C@@H](CC(C)C)C(=O)N[C@H](C(N)=O)C(C)C [Example 4, [Glu22, Val25, Arg26] GLP-1 (7-33)amide] (H-HAEGTFTSDVSSYLEEQAVREFIAWLV-NH2) | < 0.0003 µM | 0.2 to 1.5 µM | 0.00024 to 0.044 µM
CC[C@H](C)[C@H](NC(=O)[C@H](Cc1ccccc1)NC(=O)[C@H](CCC(=O)O)NC(=O)[C@H](CCCNC(=N)N)NC(=O)[C@@H](NC(=O)[C@H](C)NC(=O)[C@H](CCC(N)=O)NC(=O)[C@H](CCC(=O)O)NC(=O)[C@H](CCC(=O)O)NC(=O)[C@H](CCCCN)NC(=O)[C@H](Cc1ccc(O)cc1)NC(=O)[C@H](CO)NC(=O)[C@H](CO)NC(=O)[C@@H](NC(=O)[C@H](CC(=O)O)NC(=O)[C@H](CO)NC(=O)[C@@H](NC(=O)[C@H](Cc1ccccc1)NC(=O)[C@@H](NC(=O)CNC(=O)[C@H](CCC(=O)O)NC(=O)C(C)(C)NC(=O)[C@@H](N)Cc1c[nH]cn1)[C@@H](C)O)[C@@H](C)O)C(C)C)C(C)C)C(=O)N[C@@H](CCC(=O)O)C(=O)N[C@@H](Cc1c[nH]c2ccccc12)C(=O)N[C@@H](CC(C)C)C(=O)N[C@H](C(N)=O)C(C)C [Example 5, [Aib8,Lys20,Glu22,Val25,Arg26,Glu30] GLP-1 (7-33) Amide] (H-H[Aib]EGTFTSDVSSYKEEQAVREFIEWLV-NH2) | < 0.0003 µM | 0.2 to 1.5 µM | 0.00024 to 0.044 µM
CC[C@H](C)[C@H](NC(=O)[C@H](Cc1ccccc1)NC(=O)[C@H](CCC(=O)O)NC(=O)[C@H](CCCNC(=N)N)NC(=O)[C@H](C)NC(=O)[C@H](C)NC(=O)[C@H](CCC(N)=O)NC(=O)[C@H](CCC(=O)O)NC(=O)[C@H](CCC(=O)O)NC(=O)[C@H](CC(C)C)NC(=O)[C@H](Cc1ccc(O)cc1)NC(=O)[C@H](CO)NC(=O)[C@H](CO)NC(=O)[C@@H](NC(=O)[C@H](CC(=O)O)NC(=O)[C@H](CO)NC(=O)[C@@H](NC(=O)[C@H](Cc1ccccc1)NC(=O)[C@@H](NC(=O)CNC(=O)[C@H](CCC(=O)O)NC(=O)[C@H](C)NC(=O)[C@@H](N)Cc1c[nH]cn1)[C@@H](C)O)[C@@H](C)O)C(C)C)C(=O)N[C@@H](C)C(=O)N[C@@H](Cc1c[nH]c2ccccc12)C(=O)N[C@@H](CC(C)C)C(=O)N[C@H](C(=O)O)C(C)C [Example 7, [Glu22, Arg26]GLP-1(7-33)peptide] (H-HAEGTFTSDVSSYLEEQAAREFIAWLV-OH) | < 0.0003 µM | 0.2 to 1.5 µM | 0.00024 to 0.044 µM
